Experimental data published in article PMC5697638, “Identification of a Potent Phosphoinositide 3‐Kinase Pan Inhibitor Displaying a Strategic Carboxylic Acid Group and Development of Its Prodrugs” (Chemmedchem, 2017).

Tests used:
hPI3K‐C2β (PIK3C2B) = hPI3K‐C2β (PIK3C2B) (Homo sapiens, UniProt O00750); test: lipid kinase assay (ADP-Glo), PI3K-C2β; format: biochemical; conditions: Table 2; 100 μM ATP; read-out: IC50 PI3Kc2β
Description: In vitro selection, lipid kinase assay: To determine the inhibitory activity of the new molecular entities on PI3K enzyme, a lipid kinase assay was performed: recombinant proteins (30 ng), human PI3Kα (PIK3CA/PIK3R1, #1161‐1165‐1 ProQinase–Germany), hPI3Kβ (PIK3CB wt/PIK3R1, #1168‐1165‐1 ProQinase, Germany), hPI3Kγ (PIK3CG, #1163‐0000‐1 ProQinase, Germany), hPI3Kδ (PIK3CD/PIK3R1, #1162–1165‐1 ProQinase, Germany), hPI3K‐C2α (PIK3C2A, #14‐906 Merck Millipore_Merck KGaA, Germany), hPI3K‐C2β (PIK3C2B, #14‐907 Merck Millipore_Merck KGaA, Germany), hPI3K‐c2γ (PIK3C2G, #1207‐0000‐1 ProQinase, Germany), and hVps34 (PIK3C3, #1160‐0000‐1 ProQinase, Germany), were incubated in kinase buffer {12.5 μL; 20 mM Tris‐HCl pH 7.5, 10 mM MgCl2, 10 μM ATP, 0.05 mg mL^−1 BSA, 0.5 mM EDTA, 5 mM HEPES pH 7.5, for PI3Kα,PI3Kβ, PI3Kγ, PI3Kδ, PI3KC‐2α, and PI3KC‐2γ; 15 mM MnCl2, 5 mM EGTA, 100 μM ATP, 50 mM HEPES pH 7.5, 100 mM NaCl, and 0.03 % CHAPS for PI3K‐C2β and VPS34 {BSA=bovine serum albumin; EDTA=ethylenediaminetetraacetic acid; HEPES=4‐(2‐hydroxyethyl)‐1‐piperazineethanesulfonic acid; EGTA=ethylene glycol‐bis(2‐aminoethylether)‐N,N,N′,N′‐tetraacetic acid; CHAPS=3‐[(3‐cholamidopropyl)dimethylammonio]‐1‐propanesulfonate}. In the reaction, the ATP concentration used for different PI3Ks was defined on the basis of the Michaelis–Menten kinetics of each enzyme, provided by the supplier. […]

PC3 cells = test: cell-cycle analysis, propidium iodide flow cytometry; format: cell-based; conditions: 10 μM, 48 h
Description: Cell‐cycle analysis: For DNA content determination, PC3 cells were seeded at 4×10^5 cells per 6 cm dish in triplicate in the presence of DMEM high glucose GlutaMAXTM (Gibco), 10 % fetal bovine serum (Invitrogen) supplemented with 5000 U mL^−1 penicillin–streptomycin (Gibco). The day after seeding, cells were treated for 48 h with 10 μM 64 or DMSO. Subsequently, PC3 cells were detached with 0.1 % trypsin–EDTA (Gibco), fixed in 70 % ethanol overnight at −20 °C, and stained for 40 min at […] with PI solution, containing 0.05 % Triton X‐100, 0.1 mg mL^−1 RNase, and 25 μg mL^−1 propidium iodide. Sample were analyzed for the DNA content by using a FACS‐Calibur flow cytometer (Becton Dickinson Immunocytometry Systems, San Jose, USA). The percentages of cells in the G0/G1, S, and G2 phases were calculated.

Sequence of hPI3K‐C2β (PIK3C2B) (O00750 whole entry): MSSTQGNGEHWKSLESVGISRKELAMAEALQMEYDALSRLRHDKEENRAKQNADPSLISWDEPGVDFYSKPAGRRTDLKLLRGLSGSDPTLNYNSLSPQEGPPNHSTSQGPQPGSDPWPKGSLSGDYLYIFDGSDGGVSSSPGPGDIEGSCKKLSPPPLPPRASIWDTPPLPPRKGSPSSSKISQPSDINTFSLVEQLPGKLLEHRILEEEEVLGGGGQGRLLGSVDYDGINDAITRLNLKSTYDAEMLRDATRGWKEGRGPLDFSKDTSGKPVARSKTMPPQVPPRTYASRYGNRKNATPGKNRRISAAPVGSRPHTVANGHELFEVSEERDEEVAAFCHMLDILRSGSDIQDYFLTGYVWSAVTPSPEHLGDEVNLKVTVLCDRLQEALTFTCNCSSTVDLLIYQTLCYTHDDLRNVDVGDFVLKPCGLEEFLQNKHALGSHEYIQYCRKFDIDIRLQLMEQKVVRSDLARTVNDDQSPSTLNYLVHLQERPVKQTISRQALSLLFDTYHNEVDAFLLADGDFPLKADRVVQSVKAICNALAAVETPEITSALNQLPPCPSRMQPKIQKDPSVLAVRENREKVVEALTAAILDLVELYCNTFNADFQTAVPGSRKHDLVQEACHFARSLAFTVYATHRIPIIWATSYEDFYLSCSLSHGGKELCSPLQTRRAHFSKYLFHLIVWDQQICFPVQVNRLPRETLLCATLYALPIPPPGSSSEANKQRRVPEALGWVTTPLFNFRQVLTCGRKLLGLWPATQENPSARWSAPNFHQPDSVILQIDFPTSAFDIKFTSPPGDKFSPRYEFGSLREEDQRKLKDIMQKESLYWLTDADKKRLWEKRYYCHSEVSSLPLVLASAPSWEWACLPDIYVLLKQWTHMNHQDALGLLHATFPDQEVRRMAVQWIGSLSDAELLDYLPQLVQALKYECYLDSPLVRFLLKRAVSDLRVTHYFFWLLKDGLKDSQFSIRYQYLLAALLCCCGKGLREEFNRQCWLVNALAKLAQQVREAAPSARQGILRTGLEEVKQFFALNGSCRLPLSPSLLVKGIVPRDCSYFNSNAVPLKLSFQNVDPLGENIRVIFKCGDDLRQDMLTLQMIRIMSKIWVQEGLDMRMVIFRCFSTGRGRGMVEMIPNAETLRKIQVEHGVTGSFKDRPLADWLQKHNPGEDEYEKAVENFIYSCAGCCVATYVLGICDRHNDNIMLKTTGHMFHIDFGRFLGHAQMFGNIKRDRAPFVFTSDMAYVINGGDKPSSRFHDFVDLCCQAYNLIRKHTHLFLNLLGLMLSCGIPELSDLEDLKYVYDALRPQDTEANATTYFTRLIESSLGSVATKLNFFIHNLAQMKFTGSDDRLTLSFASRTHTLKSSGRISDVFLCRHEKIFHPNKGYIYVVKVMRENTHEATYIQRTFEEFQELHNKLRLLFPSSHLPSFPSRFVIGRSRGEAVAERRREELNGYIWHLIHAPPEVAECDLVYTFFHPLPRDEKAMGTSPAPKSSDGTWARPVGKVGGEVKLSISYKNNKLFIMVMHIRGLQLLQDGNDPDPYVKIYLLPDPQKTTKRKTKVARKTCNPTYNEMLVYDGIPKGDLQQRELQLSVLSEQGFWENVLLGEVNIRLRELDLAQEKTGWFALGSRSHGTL

SMILES	IC50 (hPI3K‐C2β (PIK3C2B)) [µM]	effect on cell cycle (PC3 cells)
O=C(O)c1cccc(Cn2cc(-c3cccc4c(=O)cc(N5CCOCC5)[nH]c34)nn2)c1 [Compound 37, 3‐{[4‐(2‐Morpholino‐4‐oxo‐1,4‐dihydroquinolin‐8‐yl)‐1H‐1,2,3‐triazol‐1‐yl]methyl}benzoic acid]	> 20	–
COC(=O)c1cccc(Cn2cc(-c3cccc4c(=O)cc(N5CCOCC5)[nH]c34)nn2)c1 [Compound 64, Methyl 3‐{[4‐(2‐morpholino‐4‐oxo‐1,4‐dihydroquinolin‐8‐yl)‐1H‐1,2,3‐triazol‐1‐yl]methyl}benzoate]	–	induce cell‐cycle arrest
